Measured values as given in patent US10399940B2, “Substituted pyrrolidines and methods of use” (AbbVie S.à.r.l., priority 2016, dated 2019).
Read-outs that look alike come from different tables or passages of the source.

Target: T1, F508delCFTR (Homo sapiens, UniProt P13569, DEL508-508)
T1 construct: expressed in transfected cells; host or cells: CFBE41o- (human lung derived epithelial cell line), doxycycline-inducible expression
Experiment: Cell Surface Expression-Horse Radish Peroxidase (CSE-HRP) assay
Type: cell-based
Settings: CFBE41o-F508delCFTR-HRP cells; for Maximum % activity (with co-corrector): with co-corrector (2 μM); for Maximum % activity (with co-corrector) / Maximum % activity (without co-corrector): normalized to on-plate positive control, highest concentration 20 μM
Description: Cell Surface Expression-Horse Radish Peroxidase (CSE-HRP) Assay
A cellular assay for measuring the F508delCFTR cell surface expression after correction with test compounds either without or with a co-corrector (2 μM of 3-[(2R,4R)-4-({[1-(2,2-difluoro-1,3-benzodioxol-5-yl)cyclopropyl]carbonyl}amino)-7-methoxy-3,4-dihydro-2H-chromen-2-yl]benzoic acid), was developed in human lung derived epithelial cell line (CFBE41o-) (Veit G et al, (2012) Mol Biol Cell. 23(21): 4188-4202). The development was achieved by expressing the F508delCFTR mutation along with a horseradish peroxidase (HRP) in the fourth exofacial loop, and then measuring the HRP activity using luminescence readout from these cells, CFBE41o-F508delCFTR-HRP, that were incubated overnight with the test corrector compounds, either without or with the co-corrector. For this primary assay, the CFBE41o-F508delCFTR-HRP cells were plated in 384-well plates (Greiner Bio-one; Cat 781080) at 4,000 cells/well along with 0.5 μg/mL doxycycline to induce the F508delCFTR-HRP expression and further incubated at 37° C., 5% CO2 for 72 hours. The test compounds were then added either without or with a co-corrector at the required concentrations and further incubated for 18-24 hours at 33° C. The highest concentration tested was 20 μM with an 8-point concentration response curve using a 3-fold dilution in both the test compound without or with the co-corrector. Three replicate plates were run to determine one EC50. All plates contained negative controls (dimethyl sulfoxide, DMSO) and positive control (2 μM of 3-[(2R,4R)-4-({[1-(2,2-difluoro-1,3-benzodioxol-5-yl)cyclopropyl]carbonyl}amino)-7-methoxy-3,4-dihydro-2H-chromen-2-yl]benzoic acid) as well as on-plate concentration response of the positive control. Post incubation, the plates were washed 5× times with Dulbecco's phosphate buffered saline (DPBS), followed by the addition of the HRP substrate, luminol (50 μL), and measuring the HRP activity using luminescence readout on EnVision® Multilabel Plate Reader (Perkin Elmer; product number 2104-0010). The raw counts from the experiment were analyzed using Accelrys® Assay Explorer v3.3.
Z′ greater than 0.5 was used as passing quality control criteria for the plates.
The Z′ is defined as: 1−[3*SDPositive Control+3*SDNegative Control/Absolute(MeanPositive Control−MeanNegative Control)] wherein “SD” is standard deviation.
The % activity measured at each of the 8 test concentrations of the test compound added either without or with a co-corrector (2 μM of 3-[(2R,4R)-4-({[1-(2,2-difluoro-1,3-benzodioxol-5-yl)cyclopropyl]carbonyl}amino)-7-methoxy-3,4-dihydro-2H-chromen-2-yl]benzoic acid) was normalized to the on-plate positive control using the following formulae: % activity(Test compound without co-corrector)=[(test compound without co-corrector response−DMSO response)/(positive control response−DMSO response)]*100 % activity(Test compound with co-corrector)=[(test compound with co-corrector response−DMSO response)/(positive control response−DMSO response)]*100
The maximum % activity achieved for the test compound either without or with a co-corrector at any tested concentration is presented in Table 1 along with the respective EC50's calculated using the following general sigmoidal curve with variable Hill slope equation (described as Model 42 in the Accelrys® Assay Explorer v3.3 software): y=(a−d)/(1+(x/c)^b)+d
General sigmoidal curve with concentration, response, top, bottom, EC50 and Hill slope. This model describes a sigmoidal curve with an adjustable baseline, a. The equation can be used to fit curves where response is either increasing or decreasing with respect to the independent variable, “x”. • “x” is a concentration of drug under test. • “y” is the response. • “a” is the maximum response, and “d” is the minimum response • “c” is the inflection point (EC50) for the curve. That is, “y” is halfway between the lower and upper asymptotes when x=c. “b” is the slope-factor or Hill coefficient. […]

[1] = test compound without co-corrector, 18-24 hours at 33° C., read-out: EC50 (without co-corrector)
[2] = with co-corrector (2 μM of 3-[(2R,4R)-4-({[1-(2,2-difluoro-1,3-benzodioxol-5-yl)cyclopropyl]carbonyl}amino)-7-methoxy-3,4-dihydro-2H-chromen-2-yl]benzoic acid), read-out: EC50 (with co-corrector)

T1 sequence (P13569 with tags, fused parts or gaps DEL508-508): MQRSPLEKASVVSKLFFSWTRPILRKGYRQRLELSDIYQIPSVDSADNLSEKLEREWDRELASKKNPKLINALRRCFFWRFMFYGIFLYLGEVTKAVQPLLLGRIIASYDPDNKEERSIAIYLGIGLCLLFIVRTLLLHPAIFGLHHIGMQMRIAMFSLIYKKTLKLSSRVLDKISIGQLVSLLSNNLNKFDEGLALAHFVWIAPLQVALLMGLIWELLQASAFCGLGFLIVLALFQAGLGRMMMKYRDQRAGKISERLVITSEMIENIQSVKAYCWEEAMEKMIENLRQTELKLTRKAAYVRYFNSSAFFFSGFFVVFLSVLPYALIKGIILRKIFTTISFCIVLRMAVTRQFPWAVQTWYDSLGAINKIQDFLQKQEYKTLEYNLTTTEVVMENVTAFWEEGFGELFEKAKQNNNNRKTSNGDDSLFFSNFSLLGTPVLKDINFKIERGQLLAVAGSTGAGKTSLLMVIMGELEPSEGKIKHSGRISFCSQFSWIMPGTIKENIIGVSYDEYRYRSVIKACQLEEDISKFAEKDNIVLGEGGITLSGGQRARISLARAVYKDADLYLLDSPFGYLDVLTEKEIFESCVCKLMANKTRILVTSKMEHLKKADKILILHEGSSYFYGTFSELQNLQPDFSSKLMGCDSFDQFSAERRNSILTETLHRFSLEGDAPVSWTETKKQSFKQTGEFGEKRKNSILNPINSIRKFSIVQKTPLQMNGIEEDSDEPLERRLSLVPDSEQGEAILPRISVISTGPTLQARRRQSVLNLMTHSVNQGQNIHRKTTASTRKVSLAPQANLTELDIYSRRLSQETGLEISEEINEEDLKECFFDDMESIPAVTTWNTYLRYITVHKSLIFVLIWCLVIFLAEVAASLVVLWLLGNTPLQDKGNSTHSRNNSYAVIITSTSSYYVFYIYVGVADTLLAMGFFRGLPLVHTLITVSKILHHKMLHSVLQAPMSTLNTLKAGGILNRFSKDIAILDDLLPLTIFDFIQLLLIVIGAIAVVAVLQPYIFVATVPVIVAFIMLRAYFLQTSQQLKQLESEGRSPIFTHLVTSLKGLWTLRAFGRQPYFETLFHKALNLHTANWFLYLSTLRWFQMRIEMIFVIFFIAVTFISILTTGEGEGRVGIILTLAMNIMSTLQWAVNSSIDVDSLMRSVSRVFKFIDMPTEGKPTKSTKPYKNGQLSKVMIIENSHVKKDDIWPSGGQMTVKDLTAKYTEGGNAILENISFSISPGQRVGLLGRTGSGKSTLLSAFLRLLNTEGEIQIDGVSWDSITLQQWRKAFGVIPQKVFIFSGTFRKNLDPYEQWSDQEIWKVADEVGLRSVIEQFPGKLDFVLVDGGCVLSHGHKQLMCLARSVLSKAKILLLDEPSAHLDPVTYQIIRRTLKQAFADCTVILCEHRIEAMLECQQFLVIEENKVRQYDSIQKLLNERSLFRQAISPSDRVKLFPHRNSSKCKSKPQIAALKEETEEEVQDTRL

| SMILES | EC50 [1] | EC50 [2] | Maximum % activity (with co-corrector) | Maximum % activity (without co-corrector) |
| --- | --- | --- | --- | --- |
| COc1ccc(C(F)(F)F)cc1COC1[C@@H](c2cccnc2N(C)C)N(C(=O)C2CCCCC2)[C@@H](C(=O)O)[C@@H]1C(C)(C)C (mixture of isomers) [Example 15, rac-(2R,3S,5R)-3-tert-butyl-1-(cyclohexanecarbonyl)-5-[2-(dimethylamino)pyridin-3-yl]-4-{[2-methoxy-5-(trifluoromethyl)phenyl]methoxy}pyrrolidine-2-carboxylic acid] | 1000 to 10000 nM | 1000 to 10000 nM | +++ (≥350) | ++ (≥100 and <200) |
| COc1ccc(C(F)(F)F)cc1COC1[C@@H](c2ccccc2)N(C(=O)C2CCCCC2)[C@@H](C(=O)NS(C)(=O)=O)[C@@H]1C(C)(C)C (mixture of isomers) [Example 16, rac-(2R,3S,5R)-3-tert-butyl-1-(cyclohexanecarbonyl)-N-(methanesulfonyl)-4-{[2-methoxy-5-(trifluoromethyl)phenyl]methoxy}-5-phenylpyrrolidine-2-carboxamide] | 1000 to 10000 nM | 1000 to 10000 nM | ++ (≥150 and <350) | + (<100) |
| COc1ccc(Cl)cc1COC1[C@@H](c2ccccc2)N(C(=O)OC(C)C)[C@@H](C(=O)O)[C@@H]1C(C)(C)C (mixture of isomers) [Example 17, rac-(2R,3S,5R)-3-tert-butyl-4-[(5-chloro-2-methoxyphenyl)methoxy]-5-phenyl-1-{[(propan-2-yl)oxy]carbonyl}pyrrolidine-2-carboxylic acid] | 1000 to 10000 nM | 1000 to 10000 nM | +++ (≥350) | ++ (≥100 and <200) |
| COc1ncc(C(F)(F)F)cc1CO[C@@H]1[C@@H](C(C)(C)C)[C@H](C(=O)O)N(C(=O)C2CCCCC2)[C@@H]1c1ccccc1 (racemic) [Example 20, rac-(2R,3S,4R,5R)-3-tert-butyl-1-(cyclohexanecarbonyl)-4-{[2-methoxy-5-(trifluoromethyl)pyridin-3-yl]methoxy}-5-phenylpyrrolidine-2-carboxylic acid] | < 1000 nM | < 1000 nM | +++ (≥350) | ++ (≥100 and <200) |
| COc1cc(C(F)(F)F)ccc1CO[C@@H]1[C@@H](C(C)(C)C)[C@H](C(=O)O)N(C(=O)OC2CCC2)[C@@H]1c1ccccc1 (racemic) [Example 34, rac-(2R,3S,4R,5R)-3-tert-butyl-1-[(cyclobutyloxy)carbonyl]-4-{[2-methoxy-4-(trifluoromethyl)phenyl]methoxy}-5-phenylpyrrolidine-2-carboxylic acid] | 1000 to 10000 nM | 1000 to 10000 nM | +++ (≥350) | + (<100) |
| COc1ccc(Cl)cc1CO[C@@H]1[C@@H](C(C)(C)C)[C@H](C(=O)O)N(C(=O)OC2CCC2)[C@@H]1c1ccccc1 (racemic) [Example 35, rac-(2R,3S,4R,5R)-3-tert-butyl-4-[(5-chloro-2-methoxyphenyl)methoxy]-1-[(cyclobutyloxy)carbonyl]-5-phenylpyrrolidine-2-carboxylic acid] | 1000 to 10000 nM | 1000 to 10000 nM | +++ (≥350) | ++ (≥100 and <200) |
| COc1ccc(C(F)(F)F)cc1CO[C@@H]1[C@@H](C(C)(C)C)[C@H](C(=O)O)N(C(=O)N(C(C)C)C(C)C)[C@@H]1c1ccccc1 (single isomer, unassigned) [Example 8, (2R*,3S*,4R*,5R*)-3-tert-butyl-1-[di(propan-2-yl)carbamoyl]-4-{[2-methoxy-5-(trifluoromethyl)phenyl]methoxy}-5-phenylpyrrolidine-2-carboxylic acid] | > 10000 nM | > 10000 nM | + (<150) | + (<100) |
| COc1ccc(C(F)(F)F)cc1CO[C@H]1[C@H](C(C)(C)C)[C@@H](C(=O)O)N(C(=O)N(C(C)C)C(C)C)[C@H]1c1ccccc1 (single isomer, unassigned) [Example 9, (2S*,3R*,4S*,5S*)-3-tert-butyl-1-[di(propan-2-yl)carbamoyl]-4-{[2-methoxy-5-(trifluoromethyl)phenyl]methoxy}-5-phenylpyrrolidine-2-carboxylic acid] | > 10000 nM | > 10000 nM | + (<150) | + (<100) |
| COc1ncc(C(F)(F)F)cc1CO[C@H]1[C@H](C(C)(C)C)[C@@H](C(=O)O)N(C(=O)[C@H]2CCCCO2)[C@H]1c1cccc(C(C)(C)C)c1 (single isomer, unassigned) [Example 157] | < 1000 nM | < 1000 nM | ++ (≥150 and <350) | + (<100) |
| COc1ncc(C(F)(F)F)cc1CO[C@H]1[C@H](C(C)(C)C)[C@@H](C(=O)O)N(C(=O)[C@@H]2CCCC[C@H]2C(F)(F)F)[C@H]1c1cccnc1OC(C)C (single isomer, unassigned) [Example 282] | < 1000 nM | < 1000 nM | +++ (≥350) | + (<100) |
| COc1ncc(C(F)(F)F)cc1CO[C@H]1[C@H](C(C)(C)C)[C@@H](C(=O)O)N(C(=O)[C@H]2CCCC[C@@H]2C(F)(F)F)[C@H]1c1cccnc1OC(C)C (single isomer, unassigned) [Example 283] | < 1000 nM | 1000 to 10000 nM | +++ (≥350) | + (<100) |
| COc1ccc(C(F)(F)F)cc1CO[C@@H]1[C@@H](C(C)(C)C)[C@H](C(=O)O)N(C(=O)C2CCCCC2)[C@@H]1c1ccccc1 [Example 18, (2R,3S,4R,5R)-3-tert-butyl-1-(cyclohexanecarbonyl)-4-{[2-methoxy-5-(trifluoromethyl)phenyl]methoxy}-5-phenylpyrrolidine-2-carboxylic acid] | > 10000 nM | 1000 to 10000 nM | ++ (≥150 and <350) | + (<100) |
| COc1ccc(C(F)(F)F)cc1CO[C@H]1[C@H](C(C)(C)C)[C@@H](C(=O)O)N(C(=O)C2CCCCC2)[C@H]1c1ccccc1 [Example 19, (2S,3R,4S,5S)-3-tert-butyl-1-(cyclohexanecarbonyl)-4-{[2-methoxy-5-(trifluoromethyl)phenyl]methoxy}-5-phenylpyrrolidine-2-carboxylic acid] | < 1000 nM | < 1000 nM | +++ (≥350) | +++ (≥200) |
| COCCS(=O)(=O)NC(=O)[C@@H]1[C@@H](C(C)(C)C)[C@H](OCc2cc(C(F)(F)F)ccc2OC)[C@H](c2ccccc2)N1C(=O)C1CCCCC1 [Example 21, (2S,3R,4S,5S)-3-tert-butyl-1-(cyclohexanecarbonyl)-N-(2-methoxyethanesulfonyl)-4-{[2-methoxy-5-(trifluoromethyl)phenyl]methoxy}-5-phenylpyrrolidine-2-carboxamide] | > 10000 nM | 1000 to 10000 nM | ++ (≥150 and <350) | + (<100) |
